This note sets out measurements from paper PMC10341549, “Inhibitory Investigations of Acyl-CoA Derivatives against Human Lipoxygenase Isozymes” (International Journal of Molecular Sciences, 2023).

Common to all, as to type: biochemical
In test [1] the target is T1, h5-LOX (Homo sapiens, UniProt P09917, C241A/C562A/D45S/DEL41-43/F15H/K654E/K655N/K656L/L77S/N44G/W14E/W76G).
T1 sequence (P09917 with tags, fused parts or gaps W14E/F15H/DEL41-43/N44G/D45S/W76G/L77S/C241A/C562A/K654E/K655N/K656L): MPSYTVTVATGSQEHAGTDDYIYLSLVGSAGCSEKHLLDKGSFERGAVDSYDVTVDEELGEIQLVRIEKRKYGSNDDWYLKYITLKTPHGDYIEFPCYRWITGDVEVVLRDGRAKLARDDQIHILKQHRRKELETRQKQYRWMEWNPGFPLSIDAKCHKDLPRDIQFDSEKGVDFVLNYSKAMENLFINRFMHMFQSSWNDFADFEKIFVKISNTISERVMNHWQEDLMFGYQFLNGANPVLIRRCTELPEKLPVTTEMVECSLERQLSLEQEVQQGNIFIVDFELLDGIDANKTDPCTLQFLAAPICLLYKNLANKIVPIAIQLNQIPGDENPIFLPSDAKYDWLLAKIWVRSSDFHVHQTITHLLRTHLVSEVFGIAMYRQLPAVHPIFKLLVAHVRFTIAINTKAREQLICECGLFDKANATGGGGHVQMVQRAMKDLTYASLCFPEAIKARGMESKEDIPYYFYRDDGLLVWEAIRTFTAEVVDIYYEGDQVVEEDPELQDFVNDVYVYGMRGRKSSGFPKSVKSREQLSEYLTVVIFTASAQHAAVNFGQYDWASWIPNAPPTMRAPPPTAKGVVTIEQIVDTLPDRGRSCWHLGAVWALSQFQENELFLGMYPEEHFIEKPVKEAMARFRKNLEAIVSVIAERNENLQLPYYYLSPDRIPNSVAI
Description: IC50 determination against h5-LOX. Conditions: 10 μM AA, 50 mM HEPES pH 7.5, 200 µM ATP, ammonium-sulfate precipitate enzyme, 22 °C.

Another test addresses T2, h15-LOX-1 (Homo sapiens, UniProt P16050).
T2 construct: His tag; made in house
T2 sequence (P16050 1-662): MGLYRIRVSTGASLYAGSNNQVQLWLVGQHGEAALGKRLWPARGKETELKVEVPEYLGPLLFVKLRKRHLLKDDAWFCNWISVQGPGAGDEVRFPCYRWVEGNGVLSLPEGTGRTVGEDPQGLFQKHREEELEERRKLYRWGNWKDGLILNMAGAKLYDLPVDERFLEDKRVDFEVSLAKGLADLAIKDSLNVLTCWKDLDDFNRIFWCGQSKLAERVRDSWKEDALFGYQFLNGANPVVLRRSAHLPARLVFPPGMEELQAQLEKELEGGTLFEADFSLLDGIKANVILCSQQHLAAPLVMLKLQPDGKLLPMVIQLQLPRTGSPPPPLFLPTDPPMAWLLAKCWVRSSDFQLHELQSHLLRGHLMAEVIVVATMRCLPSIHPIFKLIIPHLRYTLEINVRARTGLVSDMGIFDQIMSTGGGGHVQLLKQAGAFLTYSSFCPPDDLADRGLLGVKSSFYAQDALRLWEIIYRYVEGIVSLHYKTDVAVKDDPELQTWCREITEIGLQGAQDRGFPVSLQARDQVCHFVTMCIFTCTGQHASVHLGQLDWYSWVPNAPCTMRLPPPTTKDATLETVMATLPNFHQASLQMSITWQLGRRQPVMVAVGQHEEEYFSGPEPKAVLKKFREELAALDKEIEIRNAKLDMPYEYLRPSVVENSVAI
Description: IC50 determination against h15-LOX-1. Conditions: 10 μM AA, 25 mM HEPES pH 7.5, 0.01% Triton X-100, 22 °C. Here is the method: (§1) Overexpression and purification of his-tagged wild-type h12-LOX (Uniprot entry P18054), h15-LOX-1 (Uniprot entry P16050), and h15-LOX-2 (Uniprot entry O15296) were performed using nickel-affinity chromatography. The purity of h12-LOX, h15-LOX-1, and h15-LOX-2 was assessed using SDS gel as greater than 85%, and metal content was assessed with a Finnigan inductively coupled plasma mass spectrometer (ICP-MS, Thermo Fischer Scientific, San Jose, USA) via comparison with iron standard solution. Cobalt-EDTA was used as an internal standard. WT h5-LOX (UniProt entry P09917) was expressed in Rosetta 2 cells (Novagen) transformed with the pET14b-Stable-5-LOX plasmid (a gift from Marcia Newcomer of Louisiana State University) and grown in Terrific Broth containing 34 μg/mL chloramphenicol and 100 μg/mL ampicillin at 37 °C for 3.5 h, then placed at 20 °C for an additional 26 h. Cells were pelleted and resuspended in 50 mM Tris (pH 8.0), 500 mM NaCl, 20 mM imidazole with 1 μM pepstatin, 100 μM PMSF, and DNaseI (Sigma, Kanagawa, Japan). The cells were lysed in a French pressure cell and centrifuged at 40,000× g for 20 min at 4 °C. Saturated ammonium sulfate was added to achieve a final solution of 10% and inverted several times. The lysate was centrifuged at 40,000× g for 10 min at 4 °C. The pellet was discarded, and the supernatant was increased to a final concentration of 50% ammonium sulfate. The supernatant was rotated for 10 min at 4 °C then centrifuged at 40,000× g for 10 min at 4 °C. The pellet was split into 150 mg aliquots. The WT h5-LOX used for the kinetics in this work was not purified due to a dramatic loss in activity and was therefore prepared as an ammonium-sulfate precipitate.
IC50 values for each acyl-CoA were measured against h5-LOX, h12-LOX, h15-LOX-1, and h15-LOX-2. The reactions were carried out in 25 mM HEPES buffer (pH 8.00), 0.01% Triton X-100, and 10 μM AA for h12-LOX; 25 mM HEPES buffer (pH 7.5), 0.01% Triton X-100, and 10 μM AA for h15-LOX-1 and h15-LOX-2; and 50 mM HEPES buffer (pH 7.5), 100 µM EDTA, 50 mM NaCl, 200 µM ATP, and 10 μM AA for h5-LOX. IC50 reactions were implemented with h15-LOX-1 (0.125 μM), h12-LOX (0.300 μM), h15-LOX-2 (0.5 μM), and h5-LOX (∼600 nM ammonium sulfate salt) at 22 °C in a 1 cm^2 quartz cuvette containing 2 mL of the according buffer and 10 μM AA for no longer than 2 min to avoid any cleavage of the acyl-coenzyme A. Inhibitor concentrations ranging from 50 μM to 0.01 μM were used. All reactions were conducted using a Cary-UV Vis spectrophotometer (Agilent, Santa Clara, CA, USA). The fastest rates over 15 s intervals were recorded. IC50 values were obtained by determining the percent of inhibition of the enzymatic rate at ten inhibitor concentrations and plotting the rate against the inhibitor concentration, followed by a hyperbolic saturation curve fit. The saturation curve fits were performed in duplicate or triplicate, depending on the quality of the data. […] Through HPLC monitoring, we were able to determine a lack of degradation of the fatty acyl-CoAs over the first hour.

Test [2] has as its target T1, h5-LOX. Description: IC50 determination against h5-LOX. Conditions: 10 μM AA, 50 mM HEPES pH 7.5, 200 µM ATP, ammonium-sulfate precipitate enzyme, 22 °C. Here is the method: as §1
IC50 values for each acyl-CoA were measured against h5-LOX, h12-LOX, h15-LOX-1, and h15-LOX-2. […] The fastest rates over 15 s intervals were recorded. […]
The source holds these as a separate data set.

In the case of `CCCCC/C=C\C/C=C\C/C=C\C/C=C\CCCC(=O)SCCNC(=O)CCNC(=O)[C@H](O)C(C)(C)COP(=O)(O)OP(=O)(O)OC[C@H]1O[C@@H](n2cnc3c(N)ncnc32)[C@H](O)[C@@H]1OP(=O)(O)O` [Arachidonoyl-CoA (20:4), arachidonoyl-coenzyme A (20:4)], the IC50 against h5-LOX [1] is > 200 µM; against h15-LOX-1, > 500 µM.
On to `CC/C=C\C/C=C\C/C=C\C/C=C\C/C=C\C/C=C\CCC(=O)SCCNC(=O)CCNC(=O)C(O)C(C)(C)COP(=O)(O)OP(=O)(O)OC[C@H]1O[C@@H](n2cnc3c(N)ncnc32)[C@H](O)[C@@H]1OP(=O)(O)O` (some centres unmarked) [Docosahexaenoyl CoA (22:6), docosahexaenoyl-coenzyme A (22:6)], for which the IC50 is > 200 µM against h5-LOX [2] and > 500 µM on h15-LOX-1.
On to `CCCCCCCCCCCCCCCC(=O)SCCNC(=O)CCNC(=O)[C@H](O)C(C)(C)COP(=O)(O)OP(=O)(O)OC[C@H]1O[C@@H](n2cnc3c(N)ncnc32)[C@H](O)[C@@H]1OP(=O)(O)O` [Palmitoyl-CoA (16:0), palmitoyl-coenzyme A (16:0)], for which the IC50 is 3.3 ± 0.3 µM against h5-LOX [1] and > 500 µM at h15-LOX-1.
In the case of `CCCCCCCC/C=C\CCCCCCCC(=O)SCCNC(=O)CCNC(=O)[C@H](O)C(C)(C)COP(=O)(O)OP(=O)(O)OC[C@H]1O[C@@H](n2cnc3c(N)ncnc32)[C@H](O)[C@@H]1OP(=O)(O)O` [Oleoyl-CoA (18:1), oleoyl-coenzyme A (18:1)], the half-inhibitory concentration (IC50) is > 50 µM against h5-LOX [1] and 39 ± 2 µM on h15-LOX-1.
As to `CCCCC/C=C\C/C=C\CCCCCCCC(=O)SCCNC(=O)CCNC(=O)[C@H](O)C(C)(C)COP(=O)(O)OP(=O)(O)OC[C@H]1O[C@@H](n2cnc3c(N)ncnc32)[C@H](O)[C@@H]1OP(=O)(O)O` [Linoleoyl-CoA (18:2), linoleoyl-CoA], the values for the IC50 against h5-LOX [1] and against h5-LOX [2] were > 100 µM and > 50 µM, respectively.
Regarding `CCCCC/C=C\C/C=C\C/C=C\CCCCC(=O)SCCNC(=O)CCNC(=O)[C@H](O)C(C)(C)COP(=O)(O)OP(=O)(O)OC[C@H]1O[C@@H](n2cnc3c(N)ncnc32)[C@H](O)[C@@H]1OP(=O)(O)O` [ɣ-Linolenoyl-CoA (18:3), ɣ-linolenoyl-coenzyme A (18:3)], the IC50 was > 500 µM on h5-LOX [1], > 200 µM against h5-LOX [2] and > 500 µM on h15-LOX-1.
Take `CCCCCC/C=C\CCCCCCCC(=O)SCCNC(=O)CCNC(=O)[C@H](O)C(C)(C)COP(=O)(O)OP(=O)(O)OC[C@H]1O[C@@H](n2cnc3c(N)ncnc32)[C@H](O)[C@@H]1OP(=O)(O)O` [Palmitoleoyl-CoA (16:1), palmitoleoyl-coenzyme A (16:1)]: the IC50 is 2 ± 0.4 µM on h5-LOX [1] and > 500 µM against h15-LOX-1.
The like results for `CCCCCCCCCCCCCCCCCC(=O)SCCNC(=O)CCNC(=O)[C@H](O)C(C)(C)COP(=O)(O)OP(=O)(O)OC[C@H]1O[C@@H](n2cnc3c(N)ncnc32)[C@H](O)[C@@H]1OP(=O)(O)O` [Stearoyl-CoA (18:0), stearoyl-coenzyme A (18:0)] were, in that order, > 50 µM and 4.2 ± 0.6 µM.
